{"source": "patent US20050170019A1", "about": "“Methods, compositions and devices for inducing stasis in cells” (Fred Hutchinson Cancer Research Center, priority 2003, published 2005)", "key": {"mice [1]": {"test_system": "mice", "settings": "mice tested before and after exposure"}, "mice [2]": {"test_system": "mice", "settings": "80 ppm, cited from earlier work"}, "humans": {"test_system": "humans", "settings": "cited from earlier work"}, "mice [3]": {"test_system": "mice", "assay": "Visual observation of breathing of mice administered H2S", "assay_type": "in vivo, mouse", "text": "The different parameters of stasis (reduction in oxygen consumption, decrease in carbon dioxide production or decrease in motility) can be assessed by a variety of assays and techniques. […] Indeed, this encompasses all three parameters in that it is indicative of decreased oxygen consumption, carbon dioxide production and motility. A normal mouse in room air at standard conditions will take approximately 200 breaths per minute. […] Thus, this represents at least about a 1-20-fold decrease in cellular respiration (i.e, oxygen consumption and carbon dioxide production).\nDuring the experiment, the mouse was visually observed and its movements were recorded by web camera, and telemetry measurements were recorded as described above. […] At the end of an approximately six-hour period, heat was applied to the cabinet by setting the cabinet temperature to 25° C. […] After the cabinet was warmed, weak respiration was observed when the core body temperature of the mouse achieved 14° C. […] Normal movement and respiration were fully apparent when the core body temperature returned to 25° C."}, "mice [4]": {"test_system": "mice", "assay": "Telemetry of core body temperature, heart rate and movement of mice in regulated H2S atmosphere", "assay_type": "in vivo, mouse", "text": "Implantation of telemetry devices.\nExposure of Mice to Regulated Atmosphere.\nRegulation of Ambient Temperature. […] Mice were exposed to regulated atmosphere as described above."}, "rats": {"test_system": "rats", "settings": "cited from earlier work"}, "mice [5]": {"test_system": "mice", "assay": "Respirometry (oxygen consumption, carbon dioxide production) of mice exposed to H2S", "assay_type": "in vivo, mouse", "protocol": "Measurements were over a period of 15 minutes, with the mice in a 0.5 L sealed environmental chamber with flow rates of 500 cc/min. Consumption of oxygen is obtained by subtracting the oxygen concentration when the mouse is present, from the control when the mouse is absent. Likewise, production of carbon dioxide is obtained by subtracting the carbon dioxide concentration when the mouse is present from the control when the mouse is absent. RQ stands for respiratory quotient, and is equal to the ratio of carbon dioxide produced to oxygen […]. […] The change in the respiratory quotient reflects the disparity oxygen consumption and carbon dioxide production by the mice in the presence or absence of the H2S."}, "[6]": {"settings": "second mouse, 80 ppm, 3 hrs, incubator 18° C."}, "[7]": {"settings": "mice, H2S 80 ppm versus without H2S"}}}
{"smiles": "S", "note": "[hydrogen sulfide, Hydrogen sulfide]", "values": [{"measurement": "behavioral differences after gas exposure", "setting": "mice [1]", "result": "no detectable behavioral differences"}, {"measurement": "tolerability", "setting": "mice [2]; exposures lasting up to ten weeks (CIIT 1983; Hays, 1972)", "result": "innocuous"}, {"measurement": "adverse effect, gross and histopathological examination", "setting": "mice [2]; mice, 6 hrs per day, 5 days per week, 90 days", "result": "no observed adverse effect"}, {"measurement": "effect of exposure to extreme levels", "setting": "humans; 500 ppm", "result": "sudden collapse and unconsciousness"}, {"measurement": "effect of a single breath (knock down)", "setting": "humans; atmosphere with 0.1% hydrogen sulfide", "result": "immediately collapse"}, {"measurement": "OSHA limit for humans", "setting": "humans; in vivo", "result": 10, "unit": "ppm"}, {"measurement": "core body temperature at which weak respiration was observed on warming", "setting": "mice [3]; 80 ppm, after cabinet 10.5° C., warming", "result": 14, "unit": "°C"}, {"measurement": "decrease in cellular respiration", "setting": "mice [3]; 80 ppm, core temperature 15° C., from breathing", "result": "1-20 fold"}, {"measurement": "breathing", "setting": "mice [3]; 80 ppm, core temperature dropped to 15° C., normal approximately 200", "result": "1-10 breaths per minute"}, {"measurement": "core body temperature at which normal movement and respiration were fully apparent", "setting": "mice [3]; after 80 ppm at 10.5° C., warming, room air", "result": 25, "unit": "°C"}, {"measurement": "core temperature reached", "setting": "mice [4]; first mouse, 80 ppm, 90 min, incubator 18° C.", "result": 28.6, "unit": "°C"}, {"measurement": "time to return to normal range of core temperature and activity in room air", "setting": "mice [4]; first mouse, after 90 min at 80 ppm", "result": "≤ 60", "unit": "min"}, {"measurement": "behavior of the animals after treatment", "setting": "mice [4]; four mice maintained for 4 weeks after 6 hr 80 ppm at 15° C.", "result": "no apparent change in the behavior"}, {"measurement": "behavior compared to untreated animals", "setting": "mice [4]; mouse after 80 ppm at cabinet 10.5° C.", "result": "no apparent change in the behavior"}, {"measurement": "core body temperature repeatedly reached", "setting": "mice [4]; mouse, 80 ppm protocol", "result": "13-15 °C"}, {"measurement": "lowest core body temperature recorded (FIG. 7)", "setting": "mice [4]; mouse, 80 ppm, ambient dropped to less than 10° C.", "result": 10.7, "unit": "°C"}, {"measurement": "time to recover activity after removal from gassing chamber", "setting": "mice [4]; non-telemetry mouse, 80 ppm, cabinet 10° C.", "result": "≤ 90", "unit": "min"}, {"measurement": "core temperature reached", "setting": "mice [4]; [6]", "result": 18.6, "unit": "°C"}, {"measurement": "heart rate reached (from 600 bpm)", "setting": "mice [4]; [6]", "result": 250, "unit": "bpm"}, {"measurement": "recovery after rewarming in room air", "setting": "mice [4]; seven mice, 80 ppm, 6 hrs", "result": "successfully recovered"}, {"measurement": "lowest average core body temperature", "setting": "mice [4]; seven mice, 80 ppm, 6 hrs, ambient temperature 13° C.", "result": 15, "unit": "°C"}, {"measurement": "core temperature reached (estimation, electronics failed at 15.3° C.)", "setting": "mice [4]; telemetry mouse, 80 ppm, cabinet 10° C.", "result": "approximately 12.5 °C"}, {"measurement": "core body temperature reached", "setting": "mice [4]; telemetry mouse, 80 ppm, cabinet 10.5° C., approximately six hours", "result": 10.5, "unit": "°C"}, {"measurement": "neurologic effect of perinatal exposure", "setting": "rats; 20 or 50 ppm, 7 hours per day, gestation through post-natal day 21", "result": "longer dendritic branches with reduced aborization of cerebellar Purkinje cells"}, {"measurement": "effects in exposed rat pups, perinatal study", "setting": "rats; 80 ppm (Dorman et al., 2000)", "result": "no neuropathological effects or altered motor activity, passive avoidance, or acoustic startle response"}, {"measurement": "learning of baited radial arm maze task", "setting": "rats; moderate levels (Partlo et al., 2001)", "result": "interferes with the ability of rats to learn a baited radial arm maze task"}, {"measurement": "discriminated avoidance responses", "setting": "rats; moderate levels, immediately after end of exposure (Higuchi and Fukamachi)", "result": "inhibits discriminated avoidance responses"}, {"measurement": "adverse effect, gross and histopathological examination", "setting": "rats; rats, 80 ppm, 6 hrs per day, 5 days per week, 90 days", "result": "no observed adverse effect"}, {"measurement": "RQ (respiratory quotient)", "setting": "mice [5]; H2S (80 ppm) present", "result": 0.58}, {"measurement": "production of carbon dioxide", "setting": "mice [5]; H2S (80 ppm) present", "result": 750, "unit": "ppm"}, {"measurement": "Consumption of oxygen", "setting": "mice [5]; H2S (80 ppm) present, control without mouse minus mouse present", "result": 1300, "unit": "ppm"}, {"measurement": "drop in carbon dioxide production", "setting": "mice [5]; [7]", "result": "3-4 fold"}, {"measurement": "drop in oxygen consumption", "setting": "mice [5]; [7]", "result": "2-3 fold"}, {"measurement": "decrease in CO2 production", "setting": "mice [5]; mouse, 80 ppm (FIG. 4A)", "result": "approximately 3 fold"}, {"measurement": "time to reduced carbon dioxide production (new baseline)", "setting": "mice [5]; mouse, 80 ppm (FIG. 4A)", "result": "approximately 5 minutes"}]}
